Like-named read-outs stand apart in the source and are kept apart here. Numbered stars: 1 amine (or outer) side, 2 acyl side, 3 side chain; on linkers, the order of the positions; unused ones are H or OH. Bridge positions count the residues as written; N and C are the ends. Square brackets hold non-standard residues; d marks the D form. Peptide text beside a SMILES is read from it. * marks the point of attachment. Bip(4'-COOH) = N[C@@H](Cc1ccc(-c2ccc(C(=O)O)cc2)cc1)C(=O)O; Bip(4'-NHAc) = CC(=O)Nc1ccc(-c2ccc(C[C@H](N)C(=O)O)cc2)cc1; Phe(3-CF3) = N[C@@H](Cc1cccc(C(F)(F)F)c1)C(=O)O; Ala(morpholin-4-yl) = N[C@@H](CN1CCOCC1)C(=O)O; Phe(4-COOH) = N[C@@H](Cc1ccc(C(=O)O)cc1)C(=O)O; X53 = O=C([C@H](Cc1cc(F)c(F)cc1F)N[*:1])[*:2]; Bip = N[C@@H](Cc1ccc(-c2ccccc2)cc1)C(=O)O; Phe(3-Me) = Cc1cccc(C[C@H](N)C(=O)O)c1; Val(3-OH) = CC(C)(O)[C@H](N)C(=O)O; hPhe = N[C@@H](CCc1ccccc1)C(=O)O; Cha = N[C@@H](CC1CCCCC1)C(=O)O; Carboxymethyl = O=C(O)C*; NMeA = CN[C@@H](C)C(=O)O; Orn = NCCC[C@H](N)C(=O)O; Dab = NCC[C@H](N)C(=O)O; Dap = NC[C@H](N)C(=O)O; X9 = O=C(CCF)*
Biological target: T1, Alexa fluor-647 labeled human PD-L1-Ig binding to Jurkat cell line over-expressing human PD-1 (Homo sapiens, UniProt Q15116)
T1 construct: expressed in transfected cells; host or cells: Jurkat
T1 sequence (Q15116 25-288): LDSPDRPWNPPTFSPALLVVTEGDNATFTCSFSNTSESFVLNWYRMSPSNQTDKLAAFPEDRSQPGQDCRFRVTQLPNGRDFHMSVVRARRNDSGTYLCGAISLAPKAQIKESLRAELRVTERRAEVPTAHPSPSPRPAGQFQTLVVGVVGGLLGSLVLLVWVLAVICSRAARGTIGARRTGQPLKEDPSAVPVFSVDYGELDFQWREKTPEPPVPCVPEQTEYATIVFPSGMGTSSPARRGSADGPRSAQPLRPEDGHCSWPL
Test: Jurkat-PD-1 Cell Binding High-Content Screening Assay (CBA): Method 3 (Alexa fluor-647 labeled PD-L1-Ig)
Settings: Jurkat-PD-1 cells, Alexa fluor-647 labeled PD-L1-Ig 177 nM
Method in brief: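 Readout by high-content imaging of PFA-fixed, Hoechst-stained cells after 1 h with 177 nM (final) Alexa fluor-647 PD-L1-Ig. Compound was added first to hPD-1 Jurkat cells in RPMI plus 10% FCS for 2 h at 37 °C.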

[1] = head μM, read-out: CBA Method 3 μM

Row | Structure (SMILES) | IC50 [1] [µM] | IC50 (nM, read-out: CBA Method 3) [µM]
1 | Cc1cccc(C[C@@H]2NC(=O)[C@H](CC(=O)O)NC(=O)[C@H](Cc3ccc(OCC(=O)O)cc3)NC(=O)[C@H](C)NC(=O)CSC[C@@H](C(=O)N[C@@H](CCN)C(N)=O)NC(=O)[C@H](CCC(=O)O)NC(=O)[C@H](C(C)C)NC(=O)[C@H](CC3CCCCC3)NC(=O)[C@H](CCN)NC(=O)[C@@H](CC(C)C)NC(=O)[C@H](C)N(C)C(=O)[C@H](Cc3ccc(OCC(=O)O)cc3)NC(=O)[C@H](Cc3ccc(-c4ccccc4)cc3)NC(=O)[C@H](Cc3ccc(OCC(=O)O)cc3)NC2=O)c1 [Example 5139] ({CH2CO}-AY(Carboxymethyl)D[Phe(3-Me)]Y(Carboxymethyl)[Bip]Y(Carboxymethyl)[NMeA][dL][Dab][Cha]VEC[Dab]-NH2; thioether N-14) | 0.03 | –
2 | Cc1cccc(C[C@@H]2NC(=O)[C@H](CC(=O)O)NC(=O)[C@H](Cc3ccc(OCC(=O)O)cc3)NC(=O)[C@H](C(C)(C)O)NC(=O)CSC[C@@H](C(=O)N[C@@H](CCN)C(N)=O)NC(=O)[C@H](CCCN)NC(=O)[C@H](C(C)C)NC(=O)[C@H](CC3CCCCC3)NC(=O)[C@H](CCN)NC(=O)[C@@H](CC(C)C)NC(=O)[C@H](C)N(C)C(=O)[C@H](CCC(N)=O)NC(=O)[C@H](Cc3ccc(-c4ccccc4)cc3)NC(=O)[C@H](Cc3ccc(C(=O)O)cc3)NC2=O)c1 [Example 5275] ({CH2CO}-[Val(3-OH)]Y(Carboxymethyl)D[Phe(3-Me)][Phe(4-COOH)][Bip]Q[NMeA][dL][Dab][Cha]V[Orn]C[Dab]-NH2; thioether N-14) | – | 0.0016
3 | Cc1cccc(C[C@@H]2NC(=O)[C@H](CC(=O)O)NC(=O)[C@H](Cc3ccc(OCC(=O)O)cc3)NC(=O)[C@H](CC3CCCCC3)NC(=O)CSC[C@@H](C(=O)N[C@@H](CCN)C(N)=O)NC(=O)[C@H](CCCN)NC(=O)[C@H](C(C)C)NC(=O)[C@H](CC3CCCCC3)NC(=O)[C@H](CCN)NC(=O)[C@@H](CC(C)C)NC(=O)[C@H](C)N(C)C(=O)[C@H](CCC(N)=O)NC(=O)[C@H](Cc3ccc(-c4ccccc4)cc3)NC(=O)[C@H](Cc3ccc(C(=O)O)cc3)NC2=O)c1 [Example 5174] ({CH2CO}-[Cha]Y(Carboxymethyl)D[Phe(3-Me)][Phe(4-COOH)][Bip]Q[NMeA][dL][Dab][Cha]V[Orn]C[Dab]-NH2; thioether N-14) | 0.01 | –
4 | CC(=O)Nc1ccc(-c2ccc(C[C@@H]3NC(=O)[C@H](Cc4cccc(C)c4)NC(=O)[C@H](CC(=O)O)NC(=O)[C@H](Cc4ccc(-c5ccc(C(=O)O)cc5)cc4)NC(=O)[C@H](CN4CCOCC4)NC(=O)CSC[C@@H](C(=O)N[C@@H](CCN)C(N)=O)NC(=O)[C@H](CCC(=O)O)NC(=O)[C@H](C(C)C)NC(=O)[C@H](CC4CCCCC4)NC(=O)[C@H](Cc4cnc[nH]4)NC(=O)[C@@H](CC(C)C)NC(=O)[C@H](C)N(C)C(=O)[C@H](Cc4ccc(C(=O)O)cc4)NC(=O)[C@H](Cc4ccc(-c5ccccc5)cc4)NC3=O)cc2)cc1 [Example 5253] ({CH2CO}-[Ala(morpholin-4-yl)][Bip(4'-COOH)]D[Phe(3-Me)][Bip(4'-NHAc)][Bip][Phe(4-COOH)][NMeA][dL]H[Cha]VEC[Dab]-NH2; thioether N-14) | – | 0.0028
5 | CC(C)C[C@H]1NC(=O)[C@H](C)N(C)C(=O)[C@H](CCC(N)=O)NC(=O)[C@H](Cc2ccc(-c3ccccc3)cc2)NC(=O)[C@H](Cc2ccc(OCC(=O)O)cc2)NC(=O)[C@H](Cc2cccc(C(F)(F)F)c2)NC(=O)[C@H](CC(=O)O)NC(=O)[C@H](CCc2ccccc2)NC(=O)[C@H](CN2CCOCC2)NC(=O)CSC[C@@H](C(=O)N[C@@H](CCN)C(N)=O)NC(=O)[C@H](CCCN)NC(=O)[C@H](C(C)C)NC(=O)[C@H](CC2CCCCC2)NC(=O)[C@H](CCN)NC1=O [Example 5264] ({CH2CO}-[Ala(morpholin-4-yl)][hPhe]D[Phe(3-CF3)]Y(Carboxymethyl)[Bip]Q[NMeA][dL][Dab][Cha]V[Orn]C[Dab]-NH2; thioether N-14) | 0.1 | –
6 | Cc1cccc(C[C@@H]2NC(=O)[C@H](CC(=O)O)NC(=O)[C@H](Cc3ccc(OCC(=O)O)cc3)NC(=O)[C@H](Cc3cc(F)c(F)cc3F)NC(=O)CSC[C@@H](C(=O)N[C@@H](CCN)C(N)=O)NC(=O)[C@H](CCCN)NC(=O)[C@H](C(C)C)NC(=O)[C@H](CC3CCCCC3)NC(=O)[C@H](CCN)NC(=O)[C@@H](CC(C)C)NC(=O)[C@H](C)N(C)C(=O)[C@H](CCC(N)=O)NC(=O)[C@H](Cc3ccc(-c4ccccc4)cc3)NC(=O)[C@H](Cc3ccc(C(=O)O)cc3)NC2=O)c1 [Example 5290] ({CH2CO}-[X53]Y(Carboxymethyl)D[Phe(3-Me)][Phe(4-COOH)][Bip]Q[NMeA][dL][Dab][Cha]V[Orn]C[Dab]-NH2; thioether N-14) | 0.1 | –
7 | Cc1cccc(C[C@@H]2NC(=O)[C@H](CC(=O)O)NC(=O)[C@H](Cc3ccc(OCC(=O)O)cc3)NC(=O)[C@H](CN3CCOCC3)NC(=O)CSC[C@@H](C(=O)N[C@@H](CCN)C(N)=O)NC(=O)[C@H](CCC(N)=O)NC(=O)[C@H](C(C)C)NC(=O)[C@H](CC3CCCCC3)NC(=O)[C@H](CCN)NC(=O)[C@@H](CC(C)C)NC(=O)[C@H](C)N(C)C(=O)[C@H](CCC(N)=O)NC(=O)[C@H](Cc3ccc(-c4ccccc4)cc3)NC(=O)[C@H](Cc3ccc(OCC(=O)O)cc3)NC2=O)c1 [Example 5224] ({CH2CO}-[Ala(morpholin-4-yl)]Y(Carboxymethyl)D[Phe(3-Me)]Y(Carboxymethyl)[Bip]Q[NMeA][dL][Dab][Cha]VQC[Dab]-NH2; thioether N-14) | – | 0.0035
8 | CC(C)C[C@H]1NC(=O)[C@H](C)N(C)C(=O)[C@H](Cc2ccc(C(=O)O)cc2)NC(=O)[C@H](Cc2ccc(-c3ccccc3)cc2)NC(=O)[C@H](Cc2ccc(C(=O)O)cc2)NC(=O)[C@H](Cc2cccc(C(F)(F)F)c2)NC(=O)[C@H](CC(=O)O)NC(=O)[C@H](Cc2ccc(C(=O)O)cc2)NC(=O)[C@H](CN2CCOCC2)NC(=O)CSC[C@@H](C(=O)N[C@@H](CCN)C(N)=O)NC(=O)[C@H](CNC(=O)CCF)NC(=O)[C@H](C(C)C)NC(=O)[C@H](CC2CCCCC2)NC(=O)[C@H](CCN)NC1=O [Example 5230] ({CH2CO}-[Ala(morpholin-4-yl)][Phe(4-COOH)]D[Phe(3-CF3)][Phe(4-COOH)][Bip][Phe(4-COOH)][NMeA][dL][Dab][Cha]V[Dap](X9)C[Dab]-NH2; thioether N-14) | 0.03 | –
9 | CC(C)C[C@H]1NC(=O)[C@H](C)N(C)C(=O)[C@H](CCC(N)=O)NC(=O)[C@H](Cc2ccc(-c3ccccc3)cc2)NC(=O)[C@H](CCc2ccccc2)NC(=O)[C@H](Cc2cccc(C(F)(F)F)c2)NC(=O)[C@H](CC(=O)O)NC(=O)[C@H](Cc2ccc(OCC(=O)O)cc2)NC(=O)[C@H](CN2CCOCC2)NC(=O)CSC[C@@H](C(=O)N[C@@H](CCN)C(N)=O)NC(=O)[C@H](CCCN)NC(=O)[C@H](C(C)C)NC(=O)[C@H](CC2CCCCC2)NC(=O)[C@H](CCN)NC1=O [Example 5216] ({CH2CO}-[Ala(morpholin-4-yl)]Y(Carboxymethyl)D[Phe(3-CF3)][hPhe][Bip]Q[NMeA][dL][Dab][Cha]V[Orn]C[Dab]-NH2; thioether N-14) | – | 0.006

Source: patent US20240409585A1, “MACROCYCLIC IMMUNOMODULATORS” (priority 2021, published 2024)
